Where “and” joins values, the source holds several entries; their conditions need not be identical. Equal entries are not always repeated. Where two headings read alike, the source gives them in different places.
Key:
BioA = BioA (Mycobacterium tuberculosis, UniProt P9WQ81); experiment: BioA inhibition assay (coupled BioA/BioD fluorescence displacement, IC50); type: biochemical
Mtb H37Rv = experiment: C48 biotin deficient TB efficacy study; type: in vivo, BALB/c mice; conditions: for bacterial burden per mouse, Fig. 5C / bacterial burden per mouse, Fig. 5D (second organ, not given): 200mg/kg
in vivo = conditions: female, CD-1, mouse
E. faecium ATCC 19434 = experiment: MIC screening: E. faecium
Protocol: MIC measurements were based on a method previously described[6]. Overnight liquid cultures of E. coli BW, E. coli C0244, A. baumannii ATCC 17978, K. pneumoniae ATCC 43816, P. aeruginosa PA01 and E. faecium ATCC 19434 strains were inoculated with a single colony from a freshly streaked agar plate of the corresponding bacterial strain and cultured in M9 minimal medium supplemented with amino acids[6]. The bacterial culture was prepared by washing 1 mL of overnight culture in PBS pH 7.4 (x3), then diluted to OD600 = 0.5 and used to inoculate 1:1000 in M9 minimal medium with amino acids in 96-well plates. Compounds were added to 96-well plates in two-fold serial dilutions. The plates were incubated stationary at 37 °C for 18 h, then OD600 was measured. […] The assay was performed in duplicate.

[1] = 200 mg/kg p.o. once daily, three weeks, biotin-deficient BALB/c
[2] = day 7 (values identical to Control: baseline)

Chain of BioA (P9WQ81 whole entry, looked up): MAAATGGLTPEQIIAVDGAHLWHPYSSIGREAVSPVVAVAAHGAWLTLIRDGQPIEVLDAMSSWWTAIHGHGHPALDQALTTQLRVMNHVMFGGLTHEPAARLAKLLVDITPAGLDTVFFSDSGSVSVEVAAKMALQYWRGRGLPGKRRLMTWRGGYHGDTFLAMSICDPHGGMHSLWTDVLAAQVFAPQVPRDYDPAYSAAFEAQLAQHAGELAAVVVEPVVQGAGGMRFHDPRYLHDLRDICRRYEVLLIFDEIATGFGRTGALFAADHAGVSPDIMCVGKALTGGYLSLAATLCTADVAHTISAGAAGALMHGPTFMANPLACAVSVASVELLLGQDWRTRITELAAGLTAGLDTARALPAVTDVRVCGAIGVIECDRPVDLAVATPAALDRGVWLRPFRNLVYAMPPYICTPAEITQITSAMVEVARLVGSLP

With `O=C1CCc2cc(N3CCN(C(=O)c4ccc(F)c(Br)c4)CC3)ncc21` [C48] the IC50 (BioA; 50 nM BioA) was 34 nM, the activity (BioA; C48 2.60123 nM, 50 nM BioA) was 100% and 105% and the activity at 0.00260123 µM (BioA; C48 2.60123 nM, 50 nM BioA) was 99.5%. The activity (BioA; C48 3.90184 nM, 50 nM BioA) was 98% and 101%, the activity at 0.00390184 µM (BioA; C48 3.90184 nM, 50 nM BioA) was 95.4% and the activity (BioA; C48 5.85277 nM, 50 nM BioA) was 98.6% and 97%. The activity at 0.00585277 µM (BioA; C48 5.85277 nM, 50 nM BioA) was 96.2%, the activity (BioA; C48 8.77915 nM, 50 nM BioA) was 94.6% and 97.2% and the activity at 0.00877915 µM (BioA; C48 8.77915 nM, 50 nM BioA) was 94%. For the same compound, the activity (BioA; C48 13.1687 nM, 50 nM BioA) was 90.9% and 91.4%, the activity at 0.0131687 µM (BioA; C48 13.1687 nM, 50 nM BioA) was 90.4% and the activity (BioA; C48 19.7531 nM, 50 nM BioA) was 81.3% and 85.6%. The activity at 0.0197531 µM (BioA; C48 19.7531 nM, 50 nM BioA) was 80.3%, the activity (BioA; C48 29.6296 nM, 50 nM BioA) was 64.4% and 66.5% and the activity at 0.0296296 µM (BioA; C48 29.6296 nM, 50 nM BioA) was 63.7%. The activity (BioA; C48 44.4444 nM, 50 nM BioA) was 19.1% and 25.7%, the activity at 0.0444444 µM (BioA; C48 44.4444 nM, 50 nM BioA) was 20.9% and the activity (BioA; C48 66.6667 nM, 50 nM BioA) was 0.926% and 1.11%. For the same compound, the activity at 0.0666667 µM (BioA; C48 66.6667 nM, 50 nM BioA) was 1.35%, the remaining activity at 0.00114183 µM (BioA; read-out: Vi/Vo %) was 103% and the remaining activity at 0.00171274 µM (BioA; read-out: Vi/Vo %) was 106%. The remaining activity at 0.00256912 µM (BioA; read-out: Vi/Vo %) was 106%, the remaining activity at 0.00385367 µM (BioA; read-out: Vi/Vo %) was 97% and the remaining activity at 0.00578051 µM (BioA; read-out: Vi/Vo %) was 96.5%. It also gave a remaining activity at 0.00867076 µM (BioA; read-out: Vi/Vo %) of 89.3%, a remaining activity at 0.0130061 µM (BioA; read-out: Vi/Vo %) of 88.9% and a remaining activity at 0.0195092 µM (BioA; read-out: Vi/Vo %) of 78.8%. The remaining activity at 0.0292638 µM (BioA; read-out: Vi/Vo %) was 60.8%, the remaining activity at 0.0438957 µM (BioA; read-out: Vi/Vo %) was 42% and the remaining activity at 0.0658436 µM (BioA; read-out: Vi/Vo %) was 0%. It also gave a remaining activity at 0.0987654 µM (BioA; read-out: Vi/Vo %) of 0%, a remaining activity at 0.148148 µM (BioA; read-out: Vi/Vo %) of 0% and a remaining activity at 0.222222 µM (BioA; read-out: Vi/Vo %) of 0%. The remaining activity at 0.333333 µM (BioA; read-out: Vi/Vo %) was 0%, the “reduction of bacterial burden in lungs” value (Mtb H37Rv; [1]) was 1.0 log10 CFU and the “reduction of bacterial burden in spleen” value (Mtb H37Rv; [1]) was 2.1 log10 CFU. For the same compound, the “bacterial burden per mouse, Fig. 5C” value (Mtb H37Rv; [2]) was 700 and 200 and 360 and 1090 and 400 and 320, the “bacterial burden per mouse, Fig. 5D (second organ, not given)” value (Mtb H37Rv; [2]) was 1 and the “bacterial burden per mouse, Fig. 5C” value (Mtb H37Rv; day 21) was 88000 and 30000 and 12000 and 11000 and 133000 and 32000. For the same compound, the “bacterial burden per mouse, Fig. 5D (second organ, not given)” value (Mtb H37Rv; day 21) was 90 and 1 (3×) and 20 and 70, the “bacterial burden per mouse, Fig. 5C” value (Mtb H37Rv; day 28) was 9700 and 74000 and 49000 and 29000 and 48000 (2×) and 36000 and the “bacterial burden per mouse, Fig. 5D (second organ, not given)” value (Mtb H37Rv; day 28) was 20 and 6700 and 30 and 170 and 790 and 10 and 180. For the same compound, the “plasma concentration, dose escalation” value (50 mg/kg p.o. for 4 days, 1 hr) was 61800 and 52800 and 56400, the “plasma concentration, dose escalation” value (50 mg/kg p.o. for 4 days, 24 hr) was 12.4 and 12.1 and 9.65 and the “plasma concentration, dose escalation” value (100 mg/kg p.o. for 4 days, 0 hr) was 14 and 10 and 13. For the same compound, the “plasma concentration, dose escalation” value (100 mg/kg p.o. for 4 days, 1 hr) was 112000 and 72300 and 72800, the “plasma concentration, dose escalation” value (200 mg/kg p.o. for 4 days, 0 hr) was 16 and 17 and 26 and the “plasma concentration, dose escalation” value (200 mg/kg p.o. for 4 days, 1 hr) was 74500 and 50900 and 86400. The “plasma concentration, dose escalation” value (200 mg/kg p.o. for 4 days, 5 hr) was 57700 and 39600 and 50300, the “tolerability in dose escalation” value (p.o. 50-200 mg/kg for 4 days) was “well tolerated” and the “oral absorption in dose escalation” value (p.o. up to 200 mg/kg) was “linear oral absorption”. For the same compound, the half-life (in vivo) was 54.6 min, the Vd (in vivo; iv) was 0.26 L/kg and the clearance (in vivo; iv) was 3.2 mL/min/kg. The half-life (in vivo; iv) was 54.6 min, the AUC(0-inf) (in vivo; po, 25 mg/kg) was 146 µg·h/mL and the bioavailability (in vivo; po, 25 mg/kg) was greater than 100%. The MIC (E. faecium ATCC 19434) was “inactive”.

— article doi:10.1101/2025.09.24.678246 (bioRxiv, 2025)
